Legend:
CsiD (HPGluA) = target: T1, CsiD (HPGluA) (Pseudomonas putida, UniProt Q88IU0); assay: L-2HG formation by engineered C. glutamicum, HPLC of supernatant; assay type: cell-based; conditions: whole cells, endogenously formed glutarate; Fe(II) and 2-oxoglutarate dependent; 96 h
T1 construct: gene glaH; untagged, from pVWEx1-ldcC-csiD(Pp) in C. glutamicum GSLA2G; whole-cell production
T1 sequence (Q88IU0 1-325): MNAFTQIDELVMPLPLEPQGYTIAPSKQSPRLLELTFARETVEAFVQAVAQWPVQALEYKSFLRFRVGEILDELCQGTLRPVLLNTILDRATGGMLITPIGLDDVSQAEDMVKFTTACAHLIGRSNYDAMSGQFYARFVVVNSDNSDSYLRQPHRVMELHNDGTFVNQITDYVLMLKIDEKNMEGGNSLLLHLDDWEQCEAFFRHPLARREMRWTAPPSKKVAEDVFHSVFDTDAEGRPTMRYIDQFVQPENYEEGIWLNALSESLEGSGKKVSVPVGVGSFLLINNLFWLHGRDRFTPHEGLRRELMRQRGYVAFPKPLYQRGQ

CsiD (HEGluA) = target: T2, CsiD (HEGluA) (Escherichia coli, UniProt P76621); assay: as above; assay type: cell-based, Corynebacterium glutamicum; conditions: whole cells, endogenously formed glutarate; Fe(II) and 2-oxoglutarate dependent; 96 h
T2 construct: gene glaH; untagged, from pVWEx1-ldcC-csiD(Ec) in C. glutamicum GSLA2G; whole-cell production
T2 sequence (P76621 1-325): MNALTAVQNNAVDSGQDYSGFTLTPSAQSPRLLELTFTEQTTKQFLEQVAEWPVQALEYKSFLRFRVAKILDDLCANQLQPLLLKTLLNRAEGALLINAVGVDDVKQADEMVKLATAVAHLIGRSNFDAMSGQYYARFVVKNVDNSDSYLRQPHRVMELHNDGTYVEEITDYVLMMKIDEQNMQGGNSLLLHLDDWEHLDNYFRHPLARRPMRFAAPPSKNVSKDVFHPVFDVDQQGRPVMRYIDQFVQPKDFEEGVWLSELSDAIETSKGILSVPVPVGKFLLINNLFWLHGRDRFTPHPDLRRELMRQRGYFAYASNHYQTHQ

For `O=C(O)CCCC(=O)O` [glutarate], the “L-2HG formation by engineered C. glutamicum, HPLC of supernatant” value (CsiD (HPGluA)) was “the three strains produced and secreted L-2HG” and the “L-2HG formation by engineered C. glutamicum, HPLC of supernatant” value (CsiD (HEGluA)) was “the three strains produced and secreted L-2HG”.
